Data set [1] is described as follows: Daytime color of polyurethane film with dye laminated to retroreflective sheeting. It is filed as physicochemical. The note with it: dye 0.2 wt.-% in aliphatic polyester polyurethane PN03.214, 0.1 mm film on Scotchlite 3970. The procedure: (§1) The daytime color of each article was measured using a Labsphere BFC-450 Bispectral Colorimeter commercially available from Labsphere, North Sutton, N.H. The daytime chromaticity (x,y), total luminance factor (YT), and fluorescence luminance factor (YF; which is a measure of the fluorescent properties of the article) calculated for the CIE D65 and the CIE 1931 observer are provided in TABLE II
Examples 24-27 were prepared as described in Examples 8-10, except that the dyes of Examples 1, 3, 6-(2-hydroxy-ethoxy)-14H-anthra(2,1,9-mna)thioxanthene-14-one (described by Carlini et al.) and 6-methoxy-14H-anthra(2,1,9-mna)thioxanthene-14-one were independently used at 0.2 wt.-% loading in an aliphatic polyester polyurethane resin commercially available from Huntsman Polyurethanes, West Deptford, N.J., USA under the trade designation “PN03.214”. The extrusion conditions for the polyurethane were 154-191° C. and the resultant film thickness was 0.1 mm.
The resultant films were laminated to Scotchlite 3970 reflective sheeting on aluminum panels as described in Examples 8-10. Color values were measured as described in Examples 8-10 and the results set out in TABLE VII.

Data set [2] is described as follows: Daytime color of vinyl film with dye laminated to retroreflective sheeting. It is filed as physicochemical. The following applies: 0.18 g dye in 65 g GEON 178 / Elvacite 2013 mixture, 0.04 mm vinyl film on Scotchlite 3970. The procedure: as §1
Examples 22-23 were prepared by independently stirring 0.18 g of the dye of Examples 1 and 3 into 65 g of a mixture composed of 42 wt.-% DIBK, xylol, and mineral spirit (1.7:2.3:1), 44 wt.-% of a polyvinyl chloride dispersion commercially available from PolyOne, Cleveland, Ohio under the trade designation “GEON 178” and 14 wt.-% of a polyacrylate commercially available from Ineos Acrylics Inc., Cordova, Tenn. under the trade designation “Elvacite 2013”. Each mixture was allowed to stand at room temperature for one hour prior to knife coating onto a pre-sized paper substrate. Each coated substrate was placed in a 150° F. (66° C.) oven for 1.5 minutes, followed by a 300° F. (149° C.) oven for 1.0 minute and a 400° F. (204° C.) oven for 0.75 minute, resulting in a 0.04 mm thick fluorescent colored vinyl film.
The resultant films were laminated to Scotchlite 3970 reflective sheeting on aluminum panels as described in Examples 8-10. Color values were measured as described in Examples 8-10 and the results set out in TABLE VI.

With `CCCCCCCCOc1cc2c3ccccc3c(=O)c3ccc4c5ccccc5sc1c4c32` [Example 1, 6-n-Octyloxy-14H-anthra(2,1,9mna)thioxanthene-14-one], in data set [1], the “X (daytime chromaticity)” value turned out to be 0.5739, the “YF (fluorescence luminance factor)” value amounted to 11.83, the “YT (total luminance factor)” value came to 17.46 and the “y (daytime chromaticity)” value was found to be 0.2692. Besides, in data set [2], the “Y (daytime chromaticity)” value is listed as 0.2762, the “YF (fluorescence luminance factor)” value turned out to be 12.31, the “YT (total luminance factor)” value was found to be 23.82 and the “x (daytime chromaticity)” value was 0.5149.

(Values after patent publication US6841236B2, “Articles containing thioxanthone dyes” (3M Innovative Properties Co., priority 2001, dated 2005).)
